{"source": "patent US5162335A", "about": "“Di- and tetrahydroisoquinoline derivatives” (Duphar International Research B.V., priority 1986, dated 1992)"}
{"test_system": "human cell lines: breast MCF7 and HTB26, colon WIDR and HTB38, lung HTB53, melanoma HTB66, and uterus HTB114", "assay": "Clonogenic assay with human cell lines (test 2)", "format": "cell-based", "conditions": "treatment approximately three times the cell cycle, more particularly the D-enantiomers, read-out: ID75 in the clonogenic assay (test 2)", "experimental": "2. CLONOGENIC ASSAY WITH HUMAN CELL LINES\nThe following human cell lines are used: breast MCF7 and HTB26, colon WIDR and HTB38, lung HTB53, melanoma HTB66, and uterus HTB114.\nAs comparative substances are used cisplatinum, 5-fluorouracil, daunomycine, bleomycine and adriamycine.\nDuring providing the cells or after a pre-incubationperiod of one night, the compound to be tested is added as a solution or suspension in 0.5% CMC/saline solution in a dose range with a maximum concentration of 15 μg/ml.\nThe duration of the treatment is approximately three times the cell cycle. The cells are then fixed, coloured and evaluated for the presence of the colonies. The formation of colonies is expressed in the number of colonies which is present on the treated dishes as a perecentage of the number of colonies which is present on control dishes.", "units": {"IC75": "µg/mL"}}
{"compound": "COc1cc([C@H]2c3c(ccc4ccccc34)C[C@H]3COC(=O)N32)cc(OC)c1OC", "note": "(relative stereo) [Example 82]", "IC75": "< 1"}
{"compound": "COc1cc([C@H]2c3ccc4ccccc4c3C[C@H]3COC(=O)N32)cc(OC)c1OC", "note": "(relative stereo) [Example 81]", "IC75": "< 1"}
{"compound": "COc1cc(OC)c([C@H]2c3cc4c(cc3C[C@H]3COC(=O)N32)OCCO4)cc1OC", "note": "[Example 80]", "IC75": "< 1"}
{"compound": "COc1cc([C@@H]2c3cc4c(cc3C[C@@H]3COS(=O)N32)OCO4)cc(OC)c1OC", "note": "(stereo partly drawn) [Example 55]", "IC75": "< 1"}
{"compound": "COc1cc([C@H]2N[C@@H](C(N)=O)Cc3cc4c(cc32)OCCO4)cc(OC)c1OC", "note": "[Example 110]", "IC75": "< 1"}
{"compound": "COc1cc([C@@H]2c3cc4c(cc3C[C@@H]3COC(=O)N32)OCCO4)cc(OC)c1OC", "note": "[Example 79]", "IC75": "< 1"}
{"compound": "COc1cc([C@@H]2c3cc4c(cc3C[C@@H]3CN(C)[S+]([O-])N32)OCO4)cc(OC)c1OC", "note": "(stereo partly drawn) [Example 70]", "IC75": "< 1"}
{"compound": "COc1cc([C@H]2N[C@@H](CO)Cc3c2ccc2ccccc32)cc(OC)c1OC", "note": "(relative stereo) [Example 23]", "IC75": "< 1"}
{"compound": "COc1cc([C@H]2N[C@@H](CO)Cc3cc4c(cc32)OCCO4)cc(OC)c1OC", "note": "[Example 20]", "IC75": "< 1"}
